Measured values as given in US12594271B2, “Combination therapy for cancer” (Health Research, Inc., priority 2019, dated 2026).
Entries after “also recorded” stand apart in the source; their conditions may differ.

Experiments:
[1] = test system: myeloid cells and T cells of 4T1 tumor-bearing mice; experiment: Flow cytometry of spleen, bone marrow and tumor cells from 4T1 tumor-bearing mice; format: in vivo
Method: FIG. 1. […] (A) 4T1 growth in mice treated daily with BRQ (10 mg/kg, i.p.), anti-PD-1 ([…], i.p. at the indicated 3 or 4 times) or both agents. n=5 mice/group/experiment for upper and lower graphs; *P<0.01 against single-agent treatments. B-D, data shown are for analysis of A, upper graph. (B) Spontaneous metastatic lung counts; *P<0.01. Similar patterns seen in the 2nd experiment (avg. #mets): vehicle=12; BRQ=1; αPD-1=5; combo=1. (C) Splenic granulocytic (CD11b^+Ly6C^loLy6G^+) or monocytic (CD11b^+Ly6C^hiLy6G^−) numbers in non-tumor-bearing (NTB) or tumor-bearing mice were converted to a ratio for group-by-group comparison; *P<0.03. (D) Splenic CD3^+ T cell numbers in tumor-bearing mice. (E) Splenic CD8^+ T cells in A (lower graph) were assayed based on differential expression of CD44:naïve ([…]) vs. effector/central memory (hi) phenotypes. *P<0.03. Data reported as a ratio to indicate a rising memory pool. Data in B-E are at endpoint; ns, not significant.
(§1) Treatment of Tumor-Bearing Mice Alters Surface Phenotype of Myeloid Cells. […] Female BALB/c or C57BL/6 mice were orthotopically implanted with 4T1 or AT-3 mammary tumor cells, respectively, and were monitored 3 times weekly for tumor growth. When tumors became measurable (indicated by the arrow), BRQ was administered daily (10 mg/kg intraperitoneally), and at endpoint the BM cells or spleens were collected for flow cytometric analysis for the expression (i.e., percentage or MFI value) of the indicated cell surface markers (FIGS. 13-15). We extended our in vitro studies with BRQ to […] to determine the impact of BRQ on MDSC maturation. To that end, mice bearing orthotopically implanted mammary tumors were treated with or without BRQ in vivo using a similarly previously reported dose, frequency and schedule (Sykes et al. Cell 167:171-186, 2016). The first tumor model chosen was 4T1, which is an aggressive mammary tumor cell line that induces a robust MDSC response largely comprised of PMN-MDSCs.
The upper panels of FIG. 14 are representative flow cytometry plots of the non-tumor-bearing (NTB) or tumor-bearing cohorts without (vehicle) or with BRQ. The middle panel histogram represents CD101 expression on the gated (boxed) populations of the upper panels. In this case, the far-right histograms refer to the gated-boxed right dot plot (for the PMN or granulocytic subset), whereas the gated-boxed left histogram refers to the gated-boxed upper left dot plot (for the monocytic subset). […] FIG. 15 refers to the quantification of the CD101 data from non-tumor-bearing mice or tumor-bearing mice with or without BRQ, based on both the CD101 MFI values and the percentages of CD101^+ (or high-expressing) cells reflecting the monocytic subset (upper left histogram and middle left table) or the PMN-MDSC subset (upper right histogram and middle right table). The quantification appears in the lower left and right graphs. Each point represents an individual mouse.
Effect of Treatment of Tumor-Bearing Mice with BRQ on the Efficacy of Anti-Tumor Immunotherapy. […] At endpoint, BM cells or spleens were collected and analyzed for the indicated populations by flow cytometry. These experiments sought to determine whether BRQ can act in the bone marrow environment. […] The frequency of these cells approached levels seen in the non-tumor-bearing controls. […] Moreover, analysis of the systemic impact of BRQ on T cell numbers and their activation/memory state was performed on splenic population at endpoint (FIG. 20). […] This analysis at the time was not performed on cohorts treated with anti-PD-1 mAb alone or the combination, since the intent was to focus on the effect of BRQ on T cell numbers and their phenotypic states.
Treatment of Tumor-Bearing Mice with BRQ Increases the Proliferative Capacity and Activation of Intra-Tumoral T Cells. Experimental design is as described in FIG. 12. […]

[2] = test system: AT-3 tumor cells; experiment: AT-3 orthotopic mammary tumor model: tumor growth and splenic flow cytometry; format: in vivo, mice
Method: as §1
Female C57BL/6 mice were orthotopically implanted with AT-3 tumor cells and were monitored 3 times weekly for tumor growth. When tumors became measurable, BRQ was administered daily (10 mg/kg intraperitoneally), and at endpoint the spleens were collected and analyzed by flow cytometry for the indicated cell surface markers. Tumor growth is shown in the upper panel of FIG. 16 while representative flow cytometry data is shown in the lower panel.

[3] = 4T1, BRQ 10 mg/kg i.p. daily, spleen
[4] = 4T1 tumor-bearing mice, endpoint

Question: What does the source list for `Cc1c(-c2ccc(-c3ccccc3F)cc2)nc2ccc(F)cc2c1C(=O)O` [BRQ, 6-Fluoro-2-(2′-fluoro-[1,1′-biphenyl]-4-yl)-3-methylquinoline-4-carboxylic acid]?
Answer: CD101 expression on splenic granulocytic populations ([1]; 4T1, BRQ 10 mg/kg i.p. daily): significantly increased CD101 expression; accumulation of the granulocytic population in the spleen ([1]; 4T1, BRQ 10 mg/kg i.p. daily): did not significantly alter; Ly6C expression on granulocytic cells [1, 3]: significantly higher expression of the cell surface Ly6C; Ly6G expression on granulocytic cells [1, 3]: trended upward but did not reach statistical significance; tumor-driven expansion of myeloid progenitor populations GMP or GP in bone marrow ([1]; 4T1, endpoint): reduced tumor-driven expansion; accumulation of CD11b+Gr-1+ cells in bone marrow ([1]; 4T1, vs vehicle controls): reduced the accumulation of CD11b^+Gr-1^+ cells; splenic granulocyte to monocyte ratio ([1]; 4T1 tumor-bearing mice vs non-tumor-bearing controls, endpoint): significantly altered the granulocyte to monocyte ratio resembling the non-tumor-bearing controls; splenic CD3+ T cell numbers [1, 4]: did not alter; also recorded: no negative effect; splenic CD8+ T cell memory populations (ratio of memory to naïve T cells by CD44) [1, 4]: did not alter; also recorded: no negative effect; CD44 expression on intratumoral CD8+ and CD4+ T cells ([1]; tumor tissue at endpoint): Increases in CD44 expression were similarly observed; proliferative capacity of intratumoral CD8+ and CD4+ T cells (percentages of Ki-67+ cells) ([1]; tumor tissue at endpoint): significant increases in the proliferative capacity; Ly6C expression on the granulocytic (PMN-MDSC) subset ([2]; AT-3-bearing mice, spleen): significantly increased the expression of Ly6C; Ly6C or Ly6G expression on the monocytic subset ([2]; AT-3-bearing mice, spleen): no significant changes; Ly6G expression on the surface of granulocytes ([2]; AT-3-bearing mice, spleen): increased the expression of Ly6G; AT-3 tumor growth ([2]; C57BL/6 mice, BRQ 10 mg/kg i.p. daily): minimal effects on inhibiting tumor growth
